# From US20220008401A1, “COMPOSITIONS AND METHODS FOR TREATING PULMONARY DISEASE WITH MATRIX METALLOPROTEINASE INHIBITORS” (DARSHA LLC, priority 2019, published 2022)
# Assays:
# LPS injured mice [1] = assay: Lung wet:dry weight ratio, LPS-injured mice, q6h x 4 doses; format: in vivo; conditions: LPS then Compound 1 every 6 hours for 4 doses; right lung; n=5 (LPS alone 19.44±1.6, PBS 7.5±0.12)
# Experimental: Based on the data, the effect of a 6 hour dosing interval (q6h) of Compound 1 on injured mice lung was explored. FIG. 8B schematizes the experimental LPS injury/Compound 1 treatment workflow utilized unless otherwise indicated. Briefly, mice were nasally instilled with LPS (1.5 mg/kg) followed by initiation of Compound 1 treatment 24 hours later (i.e., after a 24 hours rest period). Four doses of Compound 1 (12 mg/kg) were administered via nebulizer every 6 hours to maintain a constant presence of compound in the lung. PBS was administered as a control. Mice were sacrificed 6 hours following the fourth dose. A major feature of ALI/ARDS is non-cardiogenic pulmonary edema resulting in profound hypoxemia. […] We next investigated if attenuation of edema occurred with the alternative treatment schedule where LPS-injured mice were treated with Compound 1 every 6 hours for 4 doses. Total lung edema was determined by assessing lung wet:dry ratios under each experimental condition. Following completion of Compound 1 treatment, the right lung was removed and immediately weighed followed by desiccation for 72 hours and weighed a second time to determine the dry weight. Wet:dry weight ratios were then calculated.
# human neutrophils = assay: Human neutrophil migration in modified Boyden chamber (FMLP chemoattractant); format: cell-based; conditions: for neutrophil migration into the basal chamber: 1 hour
# Experimental: To determine if this effect was relevant in humans we utilized a modified Boyden chamber to assess the effect of Compound 1 on migration of human neutrophils. […] The basal chamber was filled with media containing the chemoattractant N-Formylmethionyl-leucyl-phenylalanine (FMLP) or vehicle. The apical chamber was seeded with ˜100,000 neutrophils with the addition of Compound 1 or vehicle. In the basal chamber, the neutrophils were allowed to migrate for 1 hour after which the basal chamber was fixed, stained with DAPI, and photographed. Five fields per well were imaged and the number of neutrophils counted using NIH ImageJ.
# caspase 3/7 = assay: Caspase 3/7 activity assay on lung homogenate of LPS-injured mice; format: in vivo; conditions: LPS-CGS group, four inhaled doses q6h starting 24 hours after LPS, n≥4 (LPS-PBS 0.81±1.15)
# Experimental: (§1) It was also examined if Compound 1 would reduce the levels of apoptosis associated with injury by LPS. Because the time line of apoptosis takes hours, an additional set of mice were injured with LPS (1.5 mg/kg of 1 mg/ml solution in sterile PBS) followed by initiation of treatment with Compound 1 twenty four hours later. The mice received four doses of Compound 1 (one dose every six hours over a total duration of 24 hours in accordance with the treatment schedule described below with reference to FIG. 8B). The mice were sacrificed and their lungs were harvested and assessed for caspase 3 activity by western blot for cleaved caspase 3 and a caspase 3/7 activity assay obtained from ThermoFisher.
# FIG. 5B is the relative densitometric quantification of western blots for cleaved caspase 3: whole caspase ratio. […] FIG. 5C depicts the results of the caspase 3/7 activity assay performed on mouse lung homogenate. […] The increase in caspase 3/7 activity was attenuated by inhaled treatment with Compound 1. FIG. 5D depicts 20× images (570A, 570B, and 570C) of representative sections of lung tissue fluorescently stained for cleaved caspase-3 (red) and cell nuclei (blue) in a control lung tissue (570A), a lung tissue of a mouse treated with LPS only (570B), and lung tissue of a mouse treated with LPS and Compound 1 (570C) (n=3).
# neutrophils (PMN) = assay: Myeloperoxidase staining of lung sections, LPS-injured mice, single inhaled dose; format: in vivo; conditions: LPS treated mice
# Experimental: Since substantial literature indicates neutrophils (PMN) are critical mediators of inflammatory damage in injured lung, we next assessed if inhaled Compound 1 attenuated PMN infiltration of LPS injured lungs. To achieve this, mice were injured with LPS and 24 h later received a single inhaled dose of Compound 1 and were sacrificed 1 hour after dosing. PMN infiltration was assessed by examining lung sections (qualitatively) and BALF (quantitatively) from Compound 1 treated and untreated mice. To assess the effects of Compound 1 on PMN in situ, paraffin embedded lung sections (prepared as described previously) were stained for myeloperoxidase, a PMN marker.
# caspase 3 = assay: Western blot for cleaved caspase 3 in lung homogenates of LPS-injured mice; format: in vivo
# Experimental: as §1
# FIG. 5A is a representative western blot of lung homogenates that were equalized for protein content (i.e., normalized to actin) and probed for whole and cleaved caspase 3. Each lane represents a lung homogenate sample (40 μg) from an individual mouse. Lane 510 depicts a lung homogenate sample from a control mouse that was not administered LPS or Compound 1. Lanes 520 and 530 depict lung homogenate samples from two mice that were administered LPS but were not treated with Compound 1. […]
# FIG. 5B is the relative densitometric quantification of western blots for cleaved caspase 3: whole caspase ratio. […]
# MMP 9 = MMP 9 (Mus musculus, UniProt P41245); assay: MMP-9 Quantikine assay on lung homogenates of LPS-injured mice; format: in vivo; set-up: One-hour post-Compound 1 treatment lung homogenates were collected and analyzed; from tissue; host or cells: lung tissue homogenate of LPS-injured mice
# Chain of MMP 9 (P41245 108-730): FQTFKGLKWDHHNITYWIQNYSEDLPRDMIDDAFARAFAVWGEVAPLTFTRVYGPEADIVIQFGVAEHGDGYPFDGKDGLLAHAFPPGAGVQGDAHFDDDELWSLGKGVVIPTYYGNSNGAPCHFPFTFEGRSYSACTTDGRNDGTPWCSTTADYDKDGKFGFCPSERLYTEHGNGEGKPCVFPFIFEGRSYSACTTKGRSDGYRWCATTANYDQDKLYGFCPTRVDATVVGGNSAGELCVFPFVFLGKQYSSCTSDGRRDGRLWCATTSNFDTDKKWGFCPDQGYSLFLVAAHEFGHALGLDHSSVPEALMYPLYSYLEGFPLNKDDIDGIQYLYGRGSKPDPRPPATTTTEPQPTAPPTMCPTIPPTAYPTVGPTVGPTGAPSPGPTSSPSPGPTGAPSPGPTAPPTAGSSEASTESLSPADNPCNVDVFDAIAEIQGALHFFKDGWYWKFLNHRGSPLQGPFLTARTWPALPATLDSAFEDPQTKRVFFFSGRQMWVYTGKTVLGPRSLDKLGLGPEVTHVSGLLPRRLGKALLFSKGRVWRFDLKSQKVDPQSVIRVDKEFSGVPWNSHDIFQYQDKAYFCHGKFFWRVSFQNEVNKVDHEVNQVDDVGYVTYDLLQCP
# Experimental: Inhibition of MMP-9 by inhaled Compound 1 treatment was assessed using a Quantikine Assay (R&D systems). Mice were injured by nasal instillation of LPS followed by treatment with inhaled PBS or Compound 1 (5 mg/mL). One-hour post-Compound 1 treatment lung homogenates were collected and analyzed.
# LPS injured mice [2] = assay: Lung injury (inflammation) score of H&E lung sections, LPS-injured mice, single inhaled dose; format: in vivo, C57BL/6J mice; conditions: LPS 1.5 mg/kg intranasal; 24 hours later single aerosolized dose 35 mg/kg; sacrifice one hour after; vs LPS alone p<0.001
# Experimental: We next determined if inhaled Compound 1 attenuated specific features of acute inflammatory lung injury that were also observed in response to LPS. Again, 12-week-old male C57BL/6J mice were intranasally instilled with LPS (1.5 mg/kg of 1 mg/ml solution in sterile PBS). 24 hours later, these mice received a single dose of aerosolized MMP inhibitor (Compound 1, dissolved in PBS, 35 mg/kg) or PBS alone and a tail vein injection of FITC labeled albumin (FITC-albumin). One hour following nebulization, the mice were sacrificed. The left lung was fixed in formalin from each animal, paraffin embedded, sectioned and stained with H&E to examine histological features indicative of lung injury. These were achieved by visually scoring each slide based on a lung injury scoring system developed by the American Thoracic Society for animal models of inflammatory lung injury.
# LPS injured mice [3] = assay: Lung injury score (LIS) and H&E sections, LPS-injured mice, q6h x 4 doses; format: in vivo
substance,measurement,setting,value
"butanamide, N-hydroxy-2-[[(4-hydroxyphenyl)sulfonyl](3-pyridinylmethyl)amino]-3-methyl, hydrochloride, (2R) [Compound 1]",wet:dry weight ratio,LPS injured mice [1],11.80±0.86
same,neutrophil migration into the basal chamber,"human neutrophils; 10 nm CGS, no FMLP, n=4",233±61 cells
same,neutrophil migration into the basal chamber,"human neutrophils; 20 nm CGS, no FMLP, n=4",293±148 cells
same,inhibition of FMLP-induced neutrophil migration,human neutrophils; FMLP + 10 nm Compound 1,did not achieve significance
same,neutrophil migration into the basal chamber,"human neutrophils; FMLP+20 nm CGS, n=4 (FMLP alone 4280±480)",2819±362 cells
same,caspase 3/7 activity,caspase 3/7,0.05 ± 0.16 µM
same,PMN infiltration into the lung parenchyma (myeloperoxidase staining),neutrophils (PMN),attenuates PMN infiltration into the lung parenchyma
same,"caspase 3 activation (cleaved caspase-3, western blot)","caspase 3; LPS 1.5 mg/kg, four inhaled doses, one every six hours, starting 24 hours after LPS, lung homogenate",absent or reduced
same,cleaved:whole caspase 3 ratio (densitometry),"caspase 3; LPS-CGS group, four inhaled doses q6h starting 24 hours after LPS, n≥5 (LPS-PBS 2.57±1.15, PBS-PBS 0.25±0.15)",0.59±0.18 AU
same,MMP-9 activity (Quantikine),"MMP 9; LPS nasal instillation then inhaled Compound 1 (5 mg/mL), lung homogenates one hour post-treatment, n=6 (LPS 9260±1173, PBS 2388±370)",3614±442.1 RFU
same,MMP-9 levels in whole lung homogenate,"MMP 9; LPS-injured, Compound 1 treated animals",decreased significantly
same,lung injury score (Inflammation Score),LPS injured mice [2],reduces the lung injury score
same,Lung Injury Score (LIS),"LPS injured mice [3]; LPS 1.5 mg/kg, four doses (12 mg/kg) via nebulizer every 6 hours from 24 hours after LPS, n=5 (LPS only 0.524±0.054, PBS only 0.188±0.025)",0.277±0.031 LIS
same,inflammation in H&E stained lung sections (qualitative),"LPS injured mice [3]; LPS then four nebulized doses every 6 hours, vs mice only receiving LPS",reduced inflammation
